The record followed here is patent US20230108050A1, “CXCL8 (INTERLEUKIN-8) ACTIVITY INHIBITOR AND CORTICOSTEROID COMBINATION AND PHARMACEUTICAL COMPOSITION AND USE THEREOF” (Dompe' farmaceutici SpA, priority 2020, published 2023).

What all share (format): in vivo, BALB/c mice
Assay [1] has as its system Th17 glucocorticoid-insensitive asthma mouse model. As to the kind of experiment: Leukocytes and protein leakage in airways (BALF), Example 1a. The settings on record: day 28-31, OVA aerosol. On the procedure: (§1) The investigation was conducted by using a Th17 glucocorticoid-insensitive asthma mouse model previously described (Campa C C et al., Nat Commun (2018), v. 9, p. 5232 and Dejager Let al., Mucosal Immunol (2015), v. 8, p 1212-25).
(§2) In details, BALB/c mice received systemic immunization by subcutaneous injection of 20 μg of chicken egg ovalbumin (OVA grade V, >98% pure; Sigma, St Louis, Mo.) in saline, emulsified in 75 μL CFA (Sigma-Aldrich) at day 0.
(§3) From day 28 after first immunization to day 31, mice were treated with PBS (vehicle), ladarixin, dexamethasone or ladarixin/dexamethasone as described below, and 60 minutes later exposed to aerosolized ovalbumin (1% in saline) for 20 minutes per day. Ladarixin was administered orally by gavage (10 mg/Kg in saline 0.9%), as previously described (Bertini et al., Br J Pharmacol (2012), v. 165, p. 436-54), once a day. Dexamethasone was administered subcutaneously (5 mg/Kg in saline), once a day.
An assessment of total leukocytes content in airways was carried out by performing bronchoalveolar lavage fluid (BALF) as previously described (Russo et al Am J Respir Cell Mol Biol (2009), v. 40, p. 410-21; Campa C C et al., Nat Commun (2018), v. 9, p. 5232). Briefly, an incision was made in the trachea where a 1.7 mm outside diameter polyethylene catheter was inserted. Then, the airways were washed 2 times with 1 mL of phosphate buffer saline (PBS). The samples were centrifuged at 300×g for 10 minutes at 4° C., the pellet was collected, resuspended in 100 μL of 3% BSA in PBS and a sample from this solution was used to assess the total leukocytes in the airways. The remaining was centrifuged at 300×g for 10 minutes at 4° C. on a histology glass slide to assess differential counting of macrophages, lymphocytes, eosinophils and neutrophils using an optical microscopy. Total protein was quantified in the BALF supernatant using a Bio-Rad protein assay Dye Reagent (Bio-Rad, USA) to measure possible protein leakage as previously described (Campa C C et al., Nat Commun (2018), v. 9, p. 5232).

Assay [2] has the same test system. As to the kind of experiment: Cytokines quantification in lung tissue (ELISA), Example 1b. The settings on record: ladarixin 10 mg/Kg oral, dexamethasone 5 mg/Kg s.c., lung lysate ELISA. How it is done: as §1, §2, §3
The levels of IL17A and TNF-α were also measured in the different experimental mice groups. […] Levels of IL-17A and TNF-α were measured by ELISA using commercial DuoSet kits from R&D Systems, according to the instructions of the manufacturer. Results, shown in FIG. 2, are expressed as pg of cytokines per ml of lung lysate (pg/ml).

Assay [3] shares this test system. Nature of the assay: Neutrophil peroxidase activity (MPO) in lung tissue, Example 1c. The settings on record: ladarixin 10 mg/Kg oral, dexamethasone 5 mg/Kg s.c.; after OVA exposure; FIG. 4A.
Description: MPO assay was performed on the lung tissue in the different experimental mice groups. In details, MPO assay was performed in a 96-well microplate by adding, in each well, 25 μL of 3,3′-5,5′-tetramethylbenzidine (TMB Sigma) diluted in dimethyl sulfoxide (DMSO; Merck, Darmstadt, Germany) at a final concentration of 1.6 mM; 100 μL of H2O2 0.02% vol/vol in PBS (pH 5.4) containing HTAB and 25 μL of processed tissue supernatant. The reaction started, at 37° C., by adding the TMB solution and the supernatant to the microplate and, after 5 min, H2O2 was added followed by a new incubation at 37° C. for 5 min. The reaction was stopped by adding 100 μL of H2SO4 1M and quantified at 450 nm wavelengths in a spectrophotometer (VERSA max, Molecular Devices, CA).
The test system is the same in assay [4]. Nature of the assay: Histological analysis of lung, pulmonary inflammation score, Example 1d. Particulars: ladarixin 10 mg/Kg oral, dexamethasone 5 mg/Kg s.c.; six grade scale 0-5; FIG. 4D, FIG. 3.
Description: In details, BALB/c mice received systemic immunization by subcutaneous injection of 20 μg of chicken egg ovalbumin (OVA grade V, >98% pure; Sigma, St Louis, Mo.) in saline, emulsified in 75 μL CFA (Sigma-Aldrich) at day 0. […]
Semiquantitative histopathology analyses were performed as described (Campa C C et al., Nat Commun (2018), v. 9, p. 5232). Briefly, ten random images per lung were acquired at 200× and pulmonary inflammation score was recorded according to a six grade scale where “0” corresponded to less than 1% of lung tissue area inflamed, “1” where up to 9% of lung area was affected by inflammation, “2” when 10% to 29% of lung tissue area was affected, “3” if 30% to 49% of lung tissue area was affected, “4” if 50% to 69% of lung tissue area was affected and “5” if more than 70% of the lung tissue area was affected by inflammation.
After BALF, left lung was removed and fixed in formalin 4% in PBS (pH 7.4), as previously described. […] Photomicrographs were obtained at 400× magnification and were analyzed using the software Image Pro Plus (Image-Pro Plus 4.1, Media Cybernetics, USA) under light microscopy. […]
Assay [5] shares this test system. As to the kind of experiment: Assessment of pulmonary mechanics, Example 1e. The settings on record: ladarixin 10 mg/Kg oral, dexamethasone 5 mg/Kg s.c.; FIG. 5B. How it is done:
as §1, §2, §3
Mice form different experimental groups were anesthetized with a subcutaneous injection of ketamine and xylazine (130 mg/Kg ketamine and 8.5 mg/Kg xylazine) to maintain spontaneous breathing under anesthesia. […] Under mechanical respiration the Dynamic Compliance (Cdyn) and Lung Resistance (RI) were determined by Resistance and Compliance RC test. […]

With `C[C@@H](C(=O)NS(C)(=O)=O)c1ccc(OS(=O)(=O)C(F)(F)F)cc1` [ladarixin], the “total leukocyte influx into alveolar space (BALF)” value in assay [1] (ladarixin 10 mg/Kg oral once a day, dexamethasone 5 mg/Kg s.c. once a day, FIG. 1A) was “reduces total leukocyte influx”. In addition, in assay [1] (ladarixin 10 mg/Kg oral, dexamethasone 5 mg/Kg s.c., FIG. 1B), the “macrophages infiltrated into airways (BALF)” value is recorded as “marked reduction”. Also, the “neutrophils infiltrated into airways (BALF)” value in assay [1] (ladarixin 10 mg/Kg oral, dexamethasone 5 mg/Kg s.c., FIG. 1C) is recorded as “marked reduction”. Also, in assay [1] (ladarixin 10 mg/Kg oral, dexamethasone 5 mg/Kg s.c., FIG. 1D), the “eosinophil recruitment into the airways (BALF)” value is recorded as “increased”. Further, the “TNF-α level in lung parenchyma” value in assay [2] (FIG. 2A) is reported as “significantly decreased”. Also, the “IL-17A level in lung parenchyma” value in assay [2] (FIG. 2B) is on record as “significantly decreased”. For the same compound, the “neutrophil accumulation in lung parenchyma (MPO activity)” value in assay [3] was “able to prevent the neutrophil accumulation”. Besides, in assay [4], the “pulmonary inflammation score (lung histology)” value is on record as “effective in reducing inflammation”. The “airway hyperreactivity evoked by methacholine (ΔRI)” value in assay [5] is “able to reduce airway hyperreactivity”.
